Laboratory results reported in publication PMC7297817, “Pharmacological Characterization of a Betaine/GABA Transporter 1 (BGT1) Inhibitor Displaying an Unusual Biphasic Inhibition Profile and Anti-seizure Effects” (Neurochemical Research, 2020).
“Also recorded” adds a separate entry of the source. Like-named read-outs stand apart in the source and are kept apart here.

Tests used:
[1] = target: T1, hGAT2 (Homo sapiens, UniProt Q9NSD5); assay: [3H]GABA uptake at hGAT2 stably expressed in CHO cells; assay type: cell-based
T1 construct: expressed in transfected cells
T1 sequence (Q9NSD5 1-602): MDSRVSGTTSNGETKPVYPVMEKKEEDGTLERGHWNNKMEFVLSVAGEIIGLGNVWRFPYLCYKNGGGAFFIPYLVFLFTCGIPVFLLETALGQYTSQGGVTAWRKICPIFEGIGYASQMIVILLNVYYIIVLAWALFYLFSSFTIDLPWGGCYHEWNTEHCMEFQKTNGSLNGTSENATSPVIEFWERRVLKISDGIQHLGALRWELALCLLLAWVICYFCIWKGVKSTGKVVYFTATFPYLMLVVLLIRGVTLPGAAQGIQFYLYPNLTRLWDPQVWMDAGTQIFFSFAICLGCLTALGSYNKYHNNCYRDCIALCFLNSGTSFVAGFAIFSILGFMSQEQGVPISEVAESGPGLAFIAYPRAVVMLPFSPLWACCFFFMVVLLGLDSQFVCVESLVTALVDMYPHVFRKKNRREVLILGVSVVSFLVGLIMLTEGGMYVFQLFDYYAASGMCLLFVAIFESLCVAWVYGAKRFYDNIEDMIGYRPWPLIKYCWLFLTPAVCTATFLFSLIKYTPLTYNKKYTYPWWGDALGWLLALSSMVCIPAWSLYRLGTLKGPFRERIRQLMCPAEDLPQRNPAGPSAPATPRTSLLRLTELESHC
Description: (§1) The HEK-293 and Flp-In CHO cell lines stably expressing mouse (m) and human (h) GATs, respectively, have been described previously and were cultured accordingly. The tsA201 cell line was used for transient expression while the MDCK II cell line express BGT1 endogenously. Both cell lines were cultured as described. tsA201 cells were transfected with DNA constructs (8 μg per 10 cm dish if not otherwise mentioned) using 40 μL PolyFect transfection reagent according to the manufacturer’s protocol (Qiagen, Venlo, Netherlands). The DNA constructs encoding hBGT1, hGAT1-3 [36], the mutated constructs hBGT1 Q299 and hGAT3 L314Q described previously, and hBGT Y453A were synthesized and sequence validated by Genscript (NJ, USA).
(§2) The [^3H]GABA competition uptake assay was performed as previously described. A minor change, however, was introduced for uptake in MDCK II cells, in which 100 nM [^3H]GABA was used for a 15 min incubation period at 37 °C instead of 30 nM [^3H]GABA and 3 min incubation. Studies related to the inhibition curves with GABA and BPDBA at hBGT1 were obtained both with and without the presence of 10 μM ATP during the [^3H]GABA uptake assay.
The [^3H]GABA uptake data was normalized to the percentage of total uptake in the individual experiments in the presence of the lowest compound concentration or no compound present. Data presented is the pooled data of at least three independent experiments with three technical replicates. Concentration–response curves (CRCs) were fitted with GraphPad Prism (version 8.2.1, Yosemite, GraphPad Software, San Diego, CA, USA) by non-linear regression to the sigmoidal concentration response model: Y=Bottom+(Top-Bottom)/1+10^LogIC50-X∗nH where Top is the Top plateau, Bottom is the Bottom plateau, X is the logarithm of the concentration of the compound, LogIC50 is the concentration giving a response halfway between Top and Bottom,and nH is the Hill slope.
The best fit for CRCs obtained with the [^3H]GABA uptake assay was identified by the extra-sum-of-squares F test (for convenience referred to as F test).

[2] = target: T2, hGAT3 (Homo sapiens, UniProt P48066); assay: [3H]GABA uptake at hGAT3 transiently expressed in tsA201 cells; assay type: cell-based; settings: 30 nM [3H]GABA, 3 min, F test P < 0.05
T2 construct: expressed in transfected cells
T2 sequence (P48066 1-632): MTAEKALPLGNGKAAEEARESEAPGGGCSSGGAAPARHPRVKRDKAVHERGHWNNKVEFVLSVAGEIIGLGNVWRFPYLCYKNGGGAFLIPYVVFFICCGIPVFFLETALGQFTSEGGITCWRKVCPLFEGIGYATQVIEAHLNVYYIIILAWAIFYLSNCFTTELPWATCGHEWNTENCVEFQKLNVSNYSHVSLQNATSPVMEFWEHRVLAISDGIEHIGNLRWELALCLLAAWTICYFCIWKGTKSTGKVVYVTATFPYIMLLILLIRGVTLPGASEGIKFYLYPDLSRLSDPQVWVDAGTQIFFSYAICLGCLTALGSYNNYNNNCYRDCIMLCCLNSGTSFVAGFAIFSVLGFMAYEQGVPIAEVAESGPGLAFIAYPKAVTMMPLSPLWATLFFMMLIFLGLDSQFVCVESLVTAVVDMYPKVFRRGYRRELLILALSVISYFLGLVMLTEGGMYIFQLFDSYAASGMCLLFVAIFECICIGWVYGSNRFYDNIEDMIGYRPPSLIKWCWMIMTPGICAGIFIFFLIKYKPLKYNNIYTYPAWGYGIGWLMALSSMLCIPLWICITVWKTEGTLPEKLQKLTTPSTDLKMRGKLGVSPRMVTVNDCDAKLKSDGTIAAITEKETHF
Description: as §1, §2
The [^3H]GABA uptake data was normalized to the percentage of total uptake in the individual experiments in the presence of the lowest compound concentration or no compound present. […]

[3] = target: T3, 5-HT5A (Homo sapiens, UniProt P47898); assay: NIMH PDSP radioligand binding, 5-HT5A; settings: radioligand [3H]LSD, n=4
T3 construct: purchased NIMH Psychoactive Drug Screening Program (PDSP)
T3 sequence (P47898 whole entry): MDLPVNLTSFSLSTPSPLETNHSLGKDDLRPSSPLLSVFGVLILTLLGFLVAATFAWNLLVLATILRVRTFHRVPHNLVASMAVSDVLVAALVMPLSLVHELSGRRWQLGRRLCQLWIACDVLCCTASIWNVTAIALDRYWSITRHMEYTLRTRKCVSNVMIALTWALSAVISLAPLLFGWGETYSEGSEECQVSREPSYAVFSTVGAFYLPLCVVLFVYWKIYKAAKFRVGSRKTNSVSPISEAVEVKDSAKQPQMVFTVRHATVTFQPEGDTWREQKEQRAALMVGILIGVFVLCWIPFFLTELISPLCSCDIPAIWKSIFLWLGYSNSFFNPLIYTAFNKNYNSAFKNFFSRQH

[4] = target: T4, KOR (Homo sapiens, UniProt P41145); assay: NIMH PDSP radioligand binding, KOR; settings: radioligand [3H]U69593, n=4
T4 construct: purchased NIMH Psychoactive Drug Screening Program (PDSP)
T4 sequence (P41145 whole entry): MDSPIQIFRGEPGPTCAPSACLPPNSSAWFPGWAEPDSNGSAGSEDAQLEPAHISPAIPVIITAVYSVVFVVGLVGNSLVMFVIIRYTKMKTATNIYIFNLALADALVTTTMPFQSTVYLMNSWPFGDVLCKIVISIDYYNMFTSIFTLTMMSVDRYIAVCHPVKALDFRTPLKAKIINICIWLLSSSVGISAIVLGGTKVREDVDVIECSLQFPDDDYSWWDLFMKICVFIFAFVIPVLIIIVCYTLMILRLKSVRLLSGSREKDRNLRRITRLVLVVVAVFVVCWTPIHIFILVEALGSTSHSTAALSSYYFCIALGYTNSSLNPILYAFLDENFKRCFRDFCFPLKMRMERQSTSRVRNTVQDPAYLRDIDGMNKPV

In the case of `Cc1ccsc1C(=CCCN(C)[C@H]1CCCC[C@H]1C(=O)O)c1sccc1C` [SBV2-114, (1R,2S)-2-((4,4-bis(3-methylthiophen-2-yl)but-3-en-yl)(methyl)amino)cyclohexanecarboxylic acid], the IC50 ([1]; ambiguous fit, N=3, CHO, read-out: IC50) is reported as 525 µM, the Frac ([1]; biphasic fit, N=1, CHO) is reported as 0.06 and the IC50 ([1]; biphasic fit, N=1, CHO, read-out: IC50, high affinity component) is reported as 3.31 µM. The Fit ([1]; preferred model per experiment) was “Biphasic; also recorded: Ambiguous”, the IC50 ([1]; read-out: IC50, low affinity component, biphasic fit, N=1, CHO) was 550 µM and the preferred fit [2] was “biphasic fit”. It also gave an inhibition at 10 µM [3] of 36.6% and an inhibition at 10 µM [4] of 40.8%.
